Source: ChEMBL document CHEMBL4699621, “Novel piperazine-2,5-dione analogs bearing 1H-indole: Synthesis and biological effects” (Bioorg Med Chem Lett, 2020)

How the values were obtained:
Mus musculus [1] = assay: Antidepressant activity in mouse assessed as decrease in immobility time at 10 mg/kg, ip by forced swimming test (reference value: 147.8 +/- 10.2 sec); type: functional
Mus musculus [2] = assay: Analgesic activity in mouse assessed as inhibition of acetic acid-induced writhing at 10 mg/kg, ip measured after 60 mins relative to control; type: functional; parameters: scale not given: the % may be the effect or the level left; conditions: 1 h
Mus musculus [3] = assay: Anti-inflammatory activity against dimethylbenzene-induced ear edema mouse model assessed as inhibition of ear edema at 10 mg/kg, ip measured after 60 mins (reference value: 6.93 +/- 1.05 mg); type: functional; conditions: 1 h
Mus musculus [4] = assay: Anti-inflammatory activity against dimethylbenzene-induced ear edema mouse model assessed as inhibition of ear edema at 10 mg/kg, ip measured after 60 mins relative to control; type: functional; parameters: scale not given: the % may be the effect or the level left; conditions: 1 h
Mus musculus [5] = assay: Antidepressant activity in mouse assessed as decrease in immobility time at 10 mg/kg, ip by forced swimming test relative to control; type: functional; parameters: scale not given: the % may be the effect or the level left
[6] = target: 5-HT3 receptor (Cavia porcellus); assay: Antagonist activity against 5-H3R in guinea pig ileum preincubated for 10 mins followed by 2-methyl 5-HT addition; conditions: read-out: pA2 (converted)

Row | SMILES | Time (Mus musculus [1]) | Activity (Mus musculus [2]) | Activity (Mus musculus [3]) | Activity (Mus musculus [4]) | Activity (Mus musculus [5]) | Kb [6]
1 | CC1NC(=O)C(Cc2cc3ccccc3[nH]2)NC1=O (stereo not given) | 93.3 s | 51.6% | 2.4 mg |  |  | 
2 | COc1ccc2cc(CC3NC(=O)C(C)NC3=O)[nH]c2c1 (stereo not given) | 77.2 s | 65% | 1.5 mg |  |  | 
3 | CC1NC(=O)C(Cc2cc3ccc(Br)cc3[nH]2)NC1=O (stereo not given) | 76.8 s | 62.8% | 1.72 mg |  |  | 
4 | Cc1ccc2[nH]c(CC3NC(=O)C(C)NC3=O)cc2c1 (stereo not given) | 53.5 s | 55.2% | 1.04 mg | 85% |  | 
5 | CC1NC(=O)C(Cc2cc3cc(Br)ccc3[nH]2)NC1=O (stereo not given) | 79.4 s | 70.2% | 1.42 mg |  |  | 
6 | CNCCC(Oc1ccc(C(F)(F)F)cc1)c1ccccc1 (stereo not given) [FLUOXETINE] | 47.4 s |  |  |  | 67.9% | 
7 | CC1NC(=O)C(Cc2cc3cc(Cl)ccc3[nH]2)NC1=O (stereo not given) | 64.8 s | 87.5% | 0.7 mg | 89.8% |  | 
8 | Cc1ccccc1N1CCN(C(=O)C2Cc3ccccc3N2C)CC1 (stereo not given) |  |  |  |  |  | 31.6 nM
9 | CC1NC(=O)C(Cc2cc3ccc(N(C)C)cc3[nH]2)NC1=O (stereo not given) | 95.1 s | 60.1% | 2.47 mg |  |  | 
10 | Cc1cc2cc(CC3NC(=O)C(C)NC3=O)[nH]c2cc1C (stereo not given) | 87.2 s | 54.3% | 2.83 mg |  |  | 
11 | Cc1ccc2cc(CC3NC(=O)C(C)NC3=O)[nH]c2c1 (stereo not given) | 58.2 s | 79.3% | 1.12 mg | 83.3% |  | 
12 | CC1NC(=O)C(Cc2cc3cc(Cl)c(Cl)cc3[nH]2)NC1=O (stereo not given) | 42.5 s | 82.5% | 0.79 mg | 87.2% | 71.2% | 
13 | CC1NC(=O)C(Cc2cc3ccc(F)cc3[nH]2)NC1=O (stereo not given) | 52.8 s | 77.8% | 0.69 mg | 90% |  | 
14 | CC1NC(=O)C(Cc2cc3cc(N(C)C)ccc3[nH]2)NC1=O (stereo not given) | 91.3 s | 50.9% | 2.02 mg |  |  | 
15 | CC1NC(=O)C(Cc2cc3cc([N+](=O)[O-])ccc3[nH]2)NC1=O (stereo not given) | 88.6 s | 66.8% | 1.61 mg |  |  | 
16 | COc1cc2cc(CC3NC(=O)C(C)NC3=O)[nH]c2cc1OC (stereo not given) | 98 s | 58.9% | 3.03 mg |  |  | 
17 | CC1NC(=O)C(Cc2cc3cc(C(F)(F)F)ccc3[nH]2)NC1=O (stereo not given) | 44 s | 88.9% | 0.45 mg | 93.5% | 70.2% | 
18 | CC1NC(=O)C(Cc2cc3cc(F)ccc3[nH]2)NC1=O (stereo not given) | 53.1 s | 90.2% | 0.61 mg | 91.2% |  | 
19 | COc1ccc2[nH]c(CC3NC(=O)C(C)NC3=O)cc2c1 (stereo not given) | 67.3 s | 53.2% | 1.41 mg |  |  | 
20 | CC1NC(=O)C(Cc2cc3ccc(Cl)cc3[nH]2)NC1=O (stereo not given) | 66.8 s | 65.4% | 0.89 mg | 87.2% |  | 
21 | COc1ccc2c(c1)c(CC(=O)O)c(C)n2C(=O)c1ccc(Cl)cc1 [INDOMETHACIN] |  | 88.7% | 1.05 mg | 84.8% |  | 
